According to patent US5457092A, “Methods of promoting bone growth in mammals comprising administration of modified parathyroid hormone” (Gesellschaft fur Biotechnologische Forschung mbH (GBF), priority 1987, dated 1995):

Tests used:
[1] = tested on: chondrocytes from sterna of 16-day-old embryonic chicks; assay: Stimulation of DNA synthesis in chondrocytes by PTH fragments (Table 1); type: cell-based, chick; conditions: for [^3 H]thymidine incorporation: 4 h, control 139 ± 6; for E/C: stimulated / non-induced control cells
Description: Chondrocytes were isolated from sterna of 16-day-old embryonic chicks according to J. Biol. Chem., 261 (1986) 7997-8001 (10; Yasui et al.) with some modifications. Collagenase was dissolved in Hanks' balanced salt solution (0.4 mM Na2 HPO4, 140 mN NaCl, 5.3 mM KCl, 0.4 mM MgSO4, 1.3 mM CaCl2, 0.4 mM KH2 PO4, 0.5 mM MglC2, 5 mM glucose, 0.05% gentamicin) at a concentration of 286 units/ml. Sterna were treated repeatedly for 30 min with collagenase solution at 37° C. Cells first released by this procedure were discarded because of their very poor responsiveness towards PTH. The collagenase treatment was subsequently repeated leading to a highly homogenous cell population of chondrocytes. The cells obtained by a second collagenase treatment were collected by centrifugation (1000 rpm, 10 min), washed twice with medium (Dulbecco's modified Eagle's medium, GIBCO, supplemented with NaHCO3 (45 mM), glutamine (2 mM), penicillin G/streptomycin (65 mg/1 and 100 mg/l, respectively), Hepes (10 mM, pH 7.2), and FCS (10% v/v) and counted.
The DNA synthesis rate was assayed in monolayer culture by the incorporation of ]^3 H]thymidine into perchloric acid-precipitable material. […] After 17 h, the medium was replaced by 200 μl of serum-free medium. After 4 days, chondrocytes were incubated for 4 h with the appropriate effector and 1μ Ci of [^3 H]thymidine. Subsequently, medium was removed and the cells were washed twice with 200 μl of phosphate-buffered saline (PBS: 137 mM NaCl, 2.7 mN KCl, 1.5 mM KH2 PO4, 0.8 mN Na2 HPO4, pH 7.0). Then cells were lysed by 100 μl of 2% (v/v) Nonidet P- 40 and 2% (w/v) sodium dodecyl sulfate treatment and the perchloric acid-insoluble material was precipitated by adding an equal volume of ice-cold 2% (w/v) perchloric acid in the presence of 1% herring sperm DNA as carrier. After storage for 10 min at -20° C., the precipitated material of each well was transferred to glass fiber filters with a Scatron--As semiautomatic cell harvester. Filters were dried at 80° C. for 20 min, transferred into scintillation vials, and 2 ml of scintillation mixture (scintillator 299; United Technology Pachard) were added. Radioactivity of the samples was determined with a β counter (Minimax; United Technology Pachard). Each test consisted of 5 up to 10 identically treated wells and was repeated at least twice with freshly prepared chondrocytes.
The incorporation of [^3 H]thymidine by non-induced control cells and by stimulated cells is shown by C and E, respectively. The results shown mean ±S.E. for n parallel cell cultures.

[2] = tested on: osteoblast enriched rat embryo calvaria cell cultures; assay: Cyclic AMP production in rat embryo calvaria cell cultures; type: cell-based; conditions: 100 nM; 15 min; control 29 ± 2.9 pmol/mg of protein
Description: (§1) FIG. 10 is a graphical representation showing the dose dependent stimulation by bPTH (1-84) of osteoblast enriched rat embryo calvaria cell cultures. Experimental details for the determination of cyclic AMP (.quadrature.) (15 min after stimulation) and incorporation of [^3 H]thymidine into DNA ( ) and CK ( ) specific activity (24 h after stimulation) are given below. The results are means ±S.E.M., N≥5. In several cases the S.E.M. was less than the size of the symbol. Control values were: cyclic AMP, 25±5 pmol/mg of protein; DNA, 240±30 c.p.m./μg of DNA; CK, 200±20 nmol/min per mg of protein. Statistical significance of differences between treated and corresponding control groups by Student's T test: *P<0.05; **P<0.01.
(§2) Rat calvaria cultures were treated with fragments of PTH derived from the central portion of the molecule.

[3] = tested on: osteoblast enriched rat embryo calvaria cell cultures; assay: CK specific activity in rat embryo calvaria cell cultures; type: cell-based; conditions: 100 nM; 24 h; control 457 ± 46 nmol/min per mg of protein
Description: as §1, §2

[4] = tested on: osteoblast enriched rat embryo calvaria cell cultures; assay: DNA synthesis ([3H]thymidine incorporation) in rat embryo calvaria cell cultures; type: cell-based
Description: as §1

[5] = tested on: ROS 17/2.8 osteoblast-like cells; assay: Cyclic AMP production in ROS 17/2.8 osteoblast-like cells; type: cell-based, rat; conditions: 400 nM; control 29 ± 5.2 pmol/mg of protein
Description: When cultures of the widely used model for osteoblasts, the osteoblast-likeclone of rat osteosarcoma, ROS 17/2.8 (Endocrinology (Baltimore), 107 (1980) 1494-1503=12; Majeska et al.), were incubated with full-length PTH and PTH fragments (Table 4), cyclic AMP production was stimulated only by bPTH(1-84) and hPTH(1-34), whereas hPTH(25-39), hPTH(27-48), hPTH(28-48) and hPTH(34-47) were ineffective.

[6] = tested on: ROS 17/2.8 osteoblast-like cells; assay: CK specific activity in ROS 17/2.8 osteoblast-like cells; type: cell-based, rat; conditions: 400 nM; control 698 ± 70 nmol/min per mg of protein
[7] = tested on: ROS 17/2.8 osteoblast-like cells; assay: DNA synthesis in ROS 17/2.8 osteoblast-like cells; type: cell-based, rat; conditions: 400 nM; control 392 ± 58 c.p.m./μg of DNA

For “hPTH(28-47): PTH fragment 28-47, human source (LQDVHNFVALGAPLAPRDAG; Parathyroid hormone; UniProt P01270 59-78, looked up, fragment)”, the “[^3 H]thymidine incorporation” value ([1]; 4.5 × 10^-5 mol/l) was 276 ± 36 cpm, the E/C ([1]; 4.5 × 10^-5 mol/l) was 1.99 and the “[^3 H]thymidine incorporation” value ([1]; 4.5 × 10^-6 mol/l) was 202 ± 17 cpm. The E/C ([1]; 4.5 × 10^-6 mol/l) was 1.45, the “[^3 H]thymidine incorporation” value ([1]; 4.5 × 10^-7 mol/l) was 205 ± 22 cpm and the E/C ([1]; 4.5 × 10^-7 mol/l) was 1.47. For the same substance, the “[^3 H]thymidine incorporation” value ([1]; 4.5 × 10^-8 mol/l) was 196 ± 25 cpm, the E/C ([1]; 4.5 × 10^-8 mol/l) was 1.41 and the “Cyclic AMP concentration, effect of fragment (experimental value/control value)” value [2] was 0.52 ± 0.39. The “CK specific activity, effect of fragment (experimental value/control value)” value [3] was 2.18 ± 0.12, the “stimulation of DNA synthesis (in words)” value [4] was “less” and the “[3H)Thymidine incorporation, effect of fragment (experimental value/control value)” value ([4]; 100 nM, 24 h, control 624 ± 73 c.p.m./μg of DNA) was 2.11 ± 0.09. The “Cyclic AMP, effect of fragment (experimental value/control value)” value [5] was 1.03 ± 0.16, the “CK specific activity, effect of fragment (experimental value/control value)” value [6] was 1.66 ± 0.11 and the “[^3 H]Thymidine incorporation, effect of fragment (experimental value/control value)” value [7] was 1.44 ± 0.11.
